System: LPS-induced pulmonary neutrophilia and emesis in the conscious ferret
Assay: In vivo Assay 4: therapeutic index of orally-administered PDE4 inhibitors in the conscious ferret
Settings: D20/D50, p.o.
Protocol: In vivo Assay 4. Evaluation of Therapeutic Index of Orally-administered PDE 4 Inhibitors in the Conscious Ferret
PDE4 inhibitors are prepared for oral p.o.) administration by dissolving in a fixed volume (1 ml) of acetone and then adding cremophor to 20% of the final volume. Acetone is evaporated by directing a flow of nitrogen gas onto the solution. Once the acetone is removed, the solution is made up to final volume with distilled water. LPS is dissolved in phosphate buffered saline.
Male ferrets (Mustela Pulorius Furo, weighing 1-2 kg) are transported and allowed to acclimatise for not less than 7 days. The diet comprises SDS diet C pelleted food given ad lib with Whiskers™ cat food given 3 times per week. The animals are supplied with pasteurised animal grade drinking water changed daily.
PDE4 inhibitors are administered orally (p.o.), using a dose volume of 1 ml/kg.
Ferrets are fasted overnight but allowed free access to water. The animals are orally dosed with vehicle or PDE 4 inhibitor using a 15 cm dosing needle that is passed down the back of the throat into the oesophagus. After dosing, the animals are returned to holding cages fitted with perspex doors to allow observation, and given free access to water. The animals are constantly observed and any emetic episodes (retching and vomiting) or behavioural changes are recorded. […]
Thirty minutes after oral dosing with compound or vehicle control, the ferrets are placed into sealed perspex containers and exposed to an aerosol of LPS (30 μg/ml) for 10 minutes. […] All emetic episodes and behavioural changes are recorded.
Six hours after LPS exposure the animals are killed by overdose of sodium pentobarbitone administered intraperitoneally. […] From this, the total number of neutrophils in the BAL sample is determined. […]
b) Emetic episodes—the number of vomits and retches are counted to determine the dose of PDE4 inhibitor that gives a 20% incidence of emesis (D20).
c) A therapeutic index (TI), using this assay, is then calculated for each PDE4 inhibitor using the following equation: […]

SMILES | Ferret TI
O=C(Nc1c(Cl)cncc1Cl)c1ccc(OC(F)F)c(OCC2CC2)c1 [roflumilast] | 1.1

Same assay, conditions: ferret, p.o.; dose giving 20% incidence of emesis

SMILES | D20 for emesis [mg/kg]
O=C(Nc1c(Cl)cncc1Cl)c1ccc(OC(F)F)c(OCC2CC2)c1 [roflumilast] | 0.46

Same assay, conditions: ferret, p.o.; dose giving 50% inhibition of LPS-induced pulmonary neutrophilia

SMILES | D50 for ferret neutrophilia [mg/kg]
O=C(Nc1c(Cl)cncc1Cl)c1ccc(OC(F)F)c(OCC2CC2)c1 [roflumilast] | 0.42

Biological target: T1, PDE4B (human recombinant) (Homo sapiens, UniProt Q07343)
T1 construct: made in house; host or cells: Saccharomyces cerevisiae strain GL62 (PDE-deficient)
Assay: PDE4B inhibition, radioactive SPA or IMAP fluorescence polarisation (FP) assay
Format: biochemical
Settings: one reading or average of ca. 2-6 readings, accurate only to about ±0.5 log unit, read-out: PDE4B pIC50 (±about 0.5) (converted)
From the text: Human recombinant PDE4B, in particular the 2B splice variant thereof (HSPDE4B2B), is disclosed in WO 94/20079 and also M. M. McLaughlin et al., “A low Km, rolipram-sensitive, cAMP-specific phosphodiesterase from human brain: cloning and expression of cDNA, biochemical characterisation of recombinant protein, and tissue distribution of mRNA”, J. Biol. Chem., 1993, 268, 6470-6476. Human recombinant PDE4B was expressed in the PDE-deficient yeast Saccharomyces cerevisiae strain GL62. 100,000×g supernatant fractions of yeast cell lysates were used for PDE4B assays and inhibitor studies.
The ability of compounds to inhibit catalytic activity at PDE4B or 4D (human recombinant), PDE3 (from bovine aorta) or PDE5 (human recombinant) or PDE6 (from bovine retina) was determined by Scintillation Proximity Assay (SPA) in 96-well format. Test compounds (preferably as a solution in DMSO, e.g. about 2 microlitre (ul) volume of DMSO solution) were preincubated at ambient temperature (room temperature, e.g. 19-23° C.) in Wallac Isoplates (code 1450-514) with PDE enzyme in 50 mM Tris-HCl buffer pH 7.5, 8.3 mM MgCl2, 1.7 mM EGTA, 0.05% (w/v) bovine serum albumin for 10-30 minutes (usually 30 minutes). The enzyme concentration was adjusted so that no more than 20% hydrolysis of the substrate defined below occurred in control wells without compound, during the incubation. For PDE3, PDE4B and PDE4D assays, [5′,8-^3H]Adenosine 3′,5′-cyclic phosphate (Amersham Pharmacia Biotech, code TRK.559; or Amersham Biosciences UK Ltd, Pollards Wood, Chalfont St Giles, Buckinghamshire HP8 4SP, UK) was added to give 0.05 uCi per well and ˜10 nM final concentration. For the PDE5 and PDE6 assay [8-^3H]Guanosine 3′,5′-cyclic phosphate (Amersham Pharmacia Biotech, code TRK.392) was added to give 0.05 uCi per well and ˜36 nM final concentration. Plates, preferably containing approx. 100 ul volume of assay mixture, were mixed on an orbital shaker for 5 minutes and incubated at ambient temperature for 1 hour. Phosphodiesterase SPA beads (Amersham Pharmacia Biotech, code RPNQ 0150) were added (˜1 mg per well) to terminate the assay. Plates were sealed and shaken and allowed to stand at ambient temperature for 35 minutes to 1 hour (preferably 35 minutes) to allow the beads to settle. Bound radioactive product was measured using a WALLAC TRILUX 1450 Microbeta scintillation counter. For inhibition curves, 10 concentrations ([…]) of each compound were assayed. Curves were analysed using ActivityBase and XLfit (ID Businesss Solutions Limited, 2 Ocean Court, Surrey Research Park, Guildford, Surrey GU2 7QB, United Kindgom) Results were expressed as pIC50 values.
The ability of compounds to inhibit catalytic activity at PDE4B (human recombinant) or PDE4D (human recombinant) was determined by IMAP Fluorescence Polarisation (FP) assay (IAP Explorer kit, available from Molecular Devices Corporation, Sunnydale, Calif., USA; Molecular Devices code: R8062) in 384-well format. The IMAP FP assay is able to measure PDE activity in an homogenous, non-radioactive assay format. The FP assay uses the ability of immobilised trivalent metal cations, coated onto nanoparticles (tiny beads), to bind the phosphate group of Fl-AMP that is produced on the hydrolysis of fluorescein-labelled (Fl) cyclic adenosine mono-phosphate (Fl-cAMP) to the non-cyclic Fl-AMP form. […] Binding of Fl-AMP product to the beads (coated with the immobilised trivalent cations) slows the rotation of the bound Fl-AMP and leads to an increase in the fluorescence polarisation ratio of parallel to perpendicular light. Inhibition of the PDE reduces/inhibits this signal increase. […]

T1 sequence (Q07343 1-564 isoform Q07343-2): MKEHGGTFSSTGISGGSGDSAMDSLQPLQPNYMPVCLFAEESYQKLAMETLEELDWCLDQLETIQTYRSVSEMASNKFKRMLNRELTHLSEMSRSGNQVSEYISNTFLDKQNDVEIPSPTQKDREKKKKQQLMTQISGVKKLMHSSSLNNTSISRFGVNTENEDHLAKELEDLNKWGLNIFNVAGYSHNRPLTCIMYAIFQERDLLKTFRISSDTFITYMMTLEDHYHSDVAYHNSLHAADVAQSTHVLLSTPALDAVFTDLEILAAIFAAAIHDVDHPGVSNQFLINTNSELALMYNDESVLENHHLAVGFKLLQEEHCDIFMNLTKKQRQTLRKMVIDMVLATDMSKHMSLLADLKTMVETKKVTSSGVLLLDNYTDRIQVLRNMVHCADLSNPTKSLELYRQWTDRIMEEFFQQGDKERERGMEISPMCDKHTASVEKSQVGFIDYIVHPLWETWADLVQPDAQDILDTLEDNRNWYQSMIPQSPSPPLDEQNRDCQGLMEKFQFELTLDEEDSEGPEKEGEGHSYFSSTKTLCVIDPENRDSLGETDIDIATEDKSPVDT

IC50 [nM] | SMILES
0.794 to 31.6 | CCn1ncc2c(NC3CCOCC3)c(-c3nc(C(=O)N4CCOCC4)co3)cnc21 [Example 59, 1-Ethyl-5-[4-(4-morpholinylcarbonyl)-1,3-oxazol-2-yl]-N-(tetrahydro-2H-pyran-4-yl)-1H-pyrazolo[3,4-b]pyridin-4-amine]
63.1 to 251 | CCn1ncc2c(N(C)C3CCOCC3)c(-c3nnc(C)o3)cnc21 [Example 60, 1-Ethyl-N-methyl-5-(5-methyl-1,3,4-oxadiazol-2-yl)-N-(tetrahydro-2H-pyran-4-yl)-1H-pyrazolo[3,4-b]pyridin-4-amine]
63.1 to 251 | CCn1ncc2c(N[C@H]3CC[C@H](O)CC3)c(-c3nnc(C)o3)cnc21 [Example 61, trans-4-{[1-Ethyl-5-(5-methyl-1,3,4-oxadiazol-2-yl)-1H-pyrazolo[3,4-b]pyridin-4-yl]amino}cyclohexanol]
0.794 to 31.6 | CCn1ncc2c(NC3CCCOC3)c(-c3nnc(C)o3)cnc21 (stereo not shown) [Example 62, 1-Ethyl-5-(5-methyl-1,3,4-oxadiazol-2-yl)-N-(tetrahydro-2H-pyran-3-yl)-1H-pyrazolo[3,4-b]pyridin-4-amine]
0.794 to 31.6 | CCn1ncc2c(NC3CCC(=O)CC3)c(-c3nnc(C)o3)cnc21 [Example 63, 4-{[1-Ethyl-5-(5-methyl-1,3,4-oxadiazol-2-yl)-1H-pyrazolo[3,4-b]pyridin-4-yl]amino}cyclohexanone]
63.1 to 251 | CCCN(c1c(-c2nnc(C)o2)cnc2c1cnn2CC)C1CCOCC1 [Example 64, 1-Ethyl-5-(5-methyl-1,3,4-oxadiazol-2-yl)-N-n-propyl-N-(tetrahydro-2H-pyran-4-yl)-1H-pyrazolo[3,4-b]pyridin-4-amine]
0.794 to 31.6 | CCn1ncc2c(NC3CCOCC3)c(-c3nnc(C4CCOCC4)o3)c(C)nc21 [Example 66, 1-Ethyl-6-methyl-N-(tetrahydro-2H-pyran-4-yl)-5-[5-(tetrahydro-2H-pyran-4-yl)-1,3,4-oxadiazol-2-yl]-1H-pyrazolo[3,4-b]pyridin-4-amine]
0.794 to 31.6 | CCn1ncc2c(NC3CCOCC3)c(-c3nnc(Cc4nonc4C)o3)cnc21 [Example 71, 1-Ethyl-5-{5-[(4-methyl-1,2,5-oxadiazol-3-yl)methyl]-1,3,4-oxadiazol-2-yl}-N-(tetrahydro-2H-pyran-4-yl)-1H-pyrazolo[3,4-b]pyridin-4-amine]
0.794 to 31.6 | CCn1ncc2c(NC3CCOCC3)c(-c3nnc(CN(C)C(C)=O)o3)cnc21 [Example 76, N-({5-[1-Ethyl-4-(tetrahydro-2H-pyran-4-ylamino)-1H-pyrazolo[3,4-b]pyridin-5-yl]-1,3,4-oxadiazol-2-yl}methyl)-N-methylacetamide]
0.794 to 31.6 | CCn1ncc2c(NC3CCOCC3)c(-c3nnc(CC4CCOCC4)o3)cnc21 [Example 77, 1-Ethyl-N-(tetrahydro-2H-pyran-4-yl)-5-[5-(tetrahydro-2H-pyran-4-ylmethyl)-1,3,4-oxadiazol-2-yl]-1H-pyrazolo[3,4-b]pyridin-4-amine]
0.794 to 31.6 | CCn1ncc2c(NC3CCOCC3)c(-c3nc(CC(=O)N4CCCC4)no3)cnc21 [Example 84, 1-Ethyl-5-{3-[2-oxo-2-(1-pyrrolidinyl)ethyl]-1,2,4-oxadiazol-5-yl}-N-(tetrahydro-2H-pyran-4-yl)-1H-pyrazolo[3,4-b]pyridin-4-amine]

System: microfilaricidal activity
Assay: not given
Settings: cited from earlier work

SMILES | microfilaricidal activity
CC1Cc2ccccc2C(c2cnc3c(c(-c4ccccc4)nn3-c3ccccc3)c2O)=N1 (stereo not shown) | no significant microfilaricidal activity
Oc1c(C2=NCCc3ccccc32)cnc2c1c(-c1ccccc1)nn2-c1ccccc1 [4-hydroxy-1,3-diphenyl-5-(3′,4′-dihydroisoquinol-1′-yl)-pyrazolo[3,4-b]pyridine, reference compound] | no significant microfilaricidal activity
